Assay: MTT cytotoxicity assay before and after UV treatment
Details: human, HeLa cells

Question: Which IC50 does the source give for `CC[C@@]1(O)C(=O)OCc2c1cc1n(c2=O)Cc2cc3cc(O)ccc3nc2-1` [HCPT, 10-hydroxycamptothecin] here?
Answer: 6.2 to 7.32 µM
